According to the supplement of paper PMC4649846:
“And” between values parts separate entries of the source, which are not always exact repeats. Equal entries are not always repeated.

How the values were obtained:
[1] = system: MDA-MB-231; conditions: incubation time: 72 h
Method in brief: (§1)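 MDA-MB-231 cells transfected a day earlier with siRNA against BRCA1 or non-targeting control siRNA were added at 4000 cells per well to 384-well plates holding compounds at 5 concentrations. After 72 h at 37 °C and 5% CO2, viability was read by CellTiter-Blue fluorescence. IC50 and drug sensitivity score came from logistic dose–response fits in Dotmatics Studies. The score is curve area relative to the area between 10% threshold and 100% inhibition, normalised by log of top response.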

[2] = system: MDA-MB-231; assay: drug sensitivity score (DSS); higher = more sensitive; extreme values may be limits of the assay; conditions: incubation time: 72 h
Method in brief: as §1

[3] = siRNA: siControl (non-targeting)

| SMILES | IC50 of cell viability ([1]; siRNA: siBRCA1) [µM] | IC50 of cell viability [1, 3] | drug sensitivity score ([2]; siRNA: siBRCA1) | drug sensitivity score [2, 3] |
| --- | --- | --- | --- | --- |
| CC(C)C[C@H](NC(=O)[C@H](CCc1ccccc1)NC(=O)CN1CCOCC1)C(=O)N[C@@H](Cc1ccccc1)C(=O)N[C@@H](CC(C)C)C(=O)[C@@]1(C)CO1 [Carfilzomib] | 0.00401 | 0.0136 µM | 39.3 | 33.7 |
| CCNC(=O)CCC/C=C\C[C@@H]1[C@@H](/C=C/[C@@H](O)CCc2ccccc2)[C@H](O)C[C@@H]1O [Bimatoprost] | > 4.17 | > 4.17 µM | 0 | 0 |
| Cn1nnc2c(C(N)=O)ncn2c1=O [Temozolomide] | > 4.17 | > 4.17 µM | 0 | 0 |
| Cc1c(N)nc([C@H](CC(N)=O)NC[C@H](N)C(N)=O)nc1C(=O)N[C@H](C(=O)N[C@H](C)[C@@H](O)[C@H](C)C(=O)N[C@H](C(=O)NCCc1nc(-c2nc(C(=O)NCCC[S+](C)C)cs2)cs1)[C@@H](C)O)[C@@H](OC1OC(CO)C(O)C(O)C1OC1OC(CO)C(O)C(OC(N)=O)C1O)c1cnc[nH]1 (stereo partly specified) [Bleomycin] | > 4.17 | 0.125 µM | 0 | 3.28 |
| CC[C@]1(O)C[C@@H]2CN(CCc3c([nH]c4ccccc34)[C@@](C(=O)OC)(c3cc4c(cc3OC)N(C)[C@H]3[C@@](O)(C(=O)OC)[C@H](OC(C)=O)[C@]5(CC)C=CCN6CC[C@]43[C@@H]65)C2)C1 [Vinblastine] | 0.00572 | 0.00565 µM | 31.4 | 30.9 |
| Cc1cn(-c2cc(NC(=O)c3ccc(C)c(Nc4nccc(-c5cccnc5)n4)c3)cc(C(F)(F)F)c2)cn1 [Nilotinib] | > 4.17 | > 4.17 µM | 0 | 0 |
| N[C@@H](Cc1ccc(N(CCCl)CCCl)cc1)C(=O)O [Melphalan] | > 4.17 | > 4.17 µM | 0 | 0 |
| CN(C)C[C@@H]1CCn2cc(c3ccccc32)C2=C(C(=O)NC2=O)c2cn(c3ccccc23)CCO1 | 2.72 | 3.77 µM | 5.43 | 4.41 |
| CC(C)C[C@H](NC(=O)[C@H](Cc1ccccc1)NC(=O)c1cnccn1)B(O)O [Bortezomib] | 0.00691 | 0.0186 µM | 37.9 | 32.2 |
| C[C@]12CC[C@H](O)CC1=CC[C@@H]1[C@@H]2CC[C@]2(C)C(c3cccnc3)=CC[C@@H]12 [Abiraterone] | > 4.17 | > 4.17 µM | 0 | 0 |
| COc1cc2c(cc1O)CC[C@@H]1[C@@H]2CC[C@]2(C)[C@@H](O)CC[C@@H]12 [2-methoxyestradiol] | 1.23 | 0.794 µM | 6.82 | 8.29 |
| C[C@]12C=CC(=O)C=C1CC[C@@H]1[C@@H]2C(=O)C[C@@]2(C)[C@H]1CC[C@]2(O)C(=O)CO [Prednisone] | > 4.17 | > 4.17 µM | 0 | 0 |
| CC(C)(C)c1cc(NC(=O)Nc2ccc(-c3cn4c(n3)sc3cc(OCCN5CCOCC5)ccc34)cc2)no1 [AC220] | > 4.17 | > 4.17 µM | 0 | 0.0185 |
| COc1cc2/c(=N/c3ccc(Br)cc3F)nc[nH]c2cc1OCC1CCN(C)CC1 [Vandetanib] | 1.85 | 1.86 µM | 7.31 | 7.25 |
| C#Cc1cccc(Nc2ncnc3cc(OC)c(OCCCCCCC(=O)NO)cc23)c1 [CUDC-101] | 0.433 | 0.321 µM | 14.7 | 16.4 |
| Clc1ccc(Nc2nnc(Cc3ccncc3)c3ccccc23)cc1 [Vatalanib] | > 4.17 | > 4.17 µM | 0 | 0 |
| CC(=O)O[C@@]12CO[C@@H]1C[C@H](O)[C@@]1(C)C(=O)[C@H](O)C3=C(C)[C@@H](OC(=O)[C@H](O)[C@@H](NC(=O)OC(C)(C)C)c4ccccc4)C[C@@](O)([C@@H](OC(=O)c4ccccc4)[C@H]21)C3(C)C [Docetaxel] | 0.00271 | 0.00157 µM and 0.00183 µM | 32.7 and 31.2 | 33.3 and 33.8 |
| COc1cc2c(Oc3ccc(NC(=O)C4(C(=O)Nc5ccc(F)cc5)CC4)cc3F)ccnc2cc1OCCCN1CCOCC1 [Foretinib] | 0.503 | 0.585 µM | 13.6 | 12.8 |
| c1cc(CN2CCCNCCNCCCNCC2)ccc1CN1CCCNCCNCCCNCC1 [Plerixafor] | 2.08 | 2.08 µM | 0 | 0 |
| CC(C)(C#N)c1cc(Cn2cncn2)cc(C(C)(C)C#N)c1 [Anastrozole] | > 4.17 | > 4.17 µM | 0 | 0 |
| CC(=O)Nc1ccc(C(=O)Nc2ccccc2N)cc1 [CI-994] | > 4.17 | 0.865 µM | 0 | 2.63 |
| CO[C@@H]1[C@H](N(C)C(=O)c2ccccc2)C[C@H]2O[C@]1(C)n1c3ccccc3c3c4c(c5c6ccccc6n2c5c31)C(=O)NC4 [PKC412 (Midostaurin)] | 0.517 | 0.206 µM | 11 | 14.7 |
| CCCCC(=O)OCC(=O)[C@]1(O)Cc2c(O)c3c(c(O)c2[C@@H](O[C@H]2C[C@H](NC(=O)C(F)(F)F)[C@H](O)[C@H](C)O2)C1)C(=O)c1c(OC)cccc1C3=O [Valrubicin] | 0.729 | 0.273 µM | 9.56 | 12.5 |
| CN(C)c1nc(N(C)C)nc(N(C)C)n1 [Altretamine] | > 4.17 | > 4.17 µM | 0 | 0 |
| CNCc1ccc(-c2[nH]c3cc(F)cc4c3c2CCNC4=O)cc1 | > 4.17 | > 4.17 µM | 0 | 0 |
| C=CC(=O)Nc1cc2c(Nc3ccc(F)c(Cl)c3)ncnc2cc1OCCCN1CCOCC1 [Canertinib] | 2.51 | 1.69 µM | 5.78 | 7.67 |
| COc1cc([C@@H]2c3cc4c(cc3[C@@H](O[C@@H]3O[C@@H]5CO[C@@H](c6cccs6)O[C@H]5[C@H](O)[C@H]3O)[C@H]3COC(=O)[C@H]23)OCO4)cc(OC)c1O [Teniposide] | 2.84 | 1.98 µM | 5.24 | 7.09 |
| N#Cc1ccc(C(c2ccc(C#N)cc2)n2cncn2)cc1 [Letrozole] | > 4.17 | > 4.17 µM | 0 | 0 |
| CC[C@H](Nc1ncnc2[nH]cnc12)c1nc2cccc(F)c2c(=O)n1-c1ccccc1 [CAL-101] | > 4.17 | 1.09 µM | 0 | 2.02 |
